Assay: Stability study of fosfomycin for injection drug product: analysis of impurities by HILIC-HPLC with CAD detection
Assay type: physicochemical
Settings: fosfomycin for injection drug product (vials, 7.92 g fosfomycin disodium + 150 mg succinic acid), 25° C. and 60% RH; for wt % of impurities at time points (months): 0: 0 months; for wt % of impurities at time points (months): 1: 1 month; for wt % of impurities at time points (months): 3: 3 months; for wt % of impurities at time points (months): 6: 6 months; for wt % of impurities at time points (months): 9: 9 months; for wt % of impurities at time points (months): 12: 12 months
Protocol: As part of a stability study of fosfomycin for injection drug product, analysis of impurities was performed according to the method of the present invention, using HILIC-HPLC method with CAD detection, as disclosed, for example, in example 2.
The sample subjected to the stability test was fosfomycin for injection drug product, namely, vials containing sterile dry powder admixture of 7.92 g of fosfomycin disodium and 150 mg of succinic acid.
The samples were kept at 25° C. and 60% RH. Analysis of impurities was performed at the following time points: 0, 1, 3, 6, 9 and 12 months. Impurities are reported at weight percentage 0.05% (limit of detection of the method). “Dtd.” in the table stands for “detected”, meaning that the impurity is detected but is under the limit of detection (0.05 wt %). ND stands for “not detected”.

SMILES | wt % of impurities at time points (months): 0 | wt % of impurities at time points (months): 1 | wt % of impurities at time points (months): 3 | wt % of impurities at time points (months): 6 | wt % of impurities at time points (months): 9 | wt % of impurities at time points (months): 12
CC(OP(=O)(O)C1OC1C)C(O)P(=O)(O)O (stereo not drawn) [Dimer1] | 0.05 wt % | 0.06 wt % | 0.05 wt % | 0.08 wt % | 0.06 wt % | 0.09 wt %
CC(OP(=O)(O)C1OC1C)C(O)P(=O)(O)O (stereo not drawn) [Dimer2] | 0.05 wt % | Dtd. (“Dtd.” in the table stands for “detected”, meaning that the impurity is detected but is under the limit of detection (0.05 wt %)) | 0.07 wt % | 0.10 wt % | 0.08 wt % | 0.11 wt %
CC(OP(=O)(O)C1OC1C)C(O)P(=O)(O)O (stereo not drawn) [Dimer3] |  |  |  |  |  | Dtd. (“Dtd.” in the table stands for “detected”, meaning that the impurity is detected but is under the limit of detection (0.05 wt %))
CCOC(C(C)O)P(=O)(O)O (stereo not drawn) [Ethanol adduct] |  |  | Dtd. (“Dtd.” in the table stands for “detected”, meaning that the impurity is detected but is under the limit of detection (0.05 wt %)) |  | Dtd. (“Dtd.” in the table stands for “detected”, meaning that the impurity is detected but is under the limit of detection (0.05 wt %)) | Dtd. (“Dtd.” in the table stands for “detected”, meaning that the impurity is detected but is under the limit of detection (0.05 wt %))
CC(O)C(O)P(=O)([O-])[O-].[Na+].[Na+] (stereo not drawn) [Impurity A, (1,2-dihydroxypropyl)phosphonate] | Dtd. (“Dtd.” in the table stands for “detected”, meaning that the impurity is detected but is under the limit of detection (0.05 wt %)) | 0.06 wt % | 0.07 wt % | 0.09 wt % | 0.11 wt % | 0.10 wt %
COC(C(C)O)P(=O)(O)O (stereo not drawn) [Methanol adduct] | 0.07 wt % | 0.18 wt % | 0.13 wt % | 0.35 wt % | Dtd. (“Dtd.” in the table stands for “detected”, meaning that the impurity is detected but is under the limit of detection (0.05 wt %)) | 0.12 wt %
C=CCP(=O)(O)O [Olefinic acid, 2-propenyl phosphonic acid] | 0.40 wt % | 0.46 wt % | 0.39 wt % | 0.42 wt % | 0.36 wt % | 0.40 wt %
CC(OP(=O)(OC(C)C(O)P(=O)(O)O)C1OC1C)C(O)P(=O)(O)O (stereo not drawn) [Trimer] | Dtd | 0.07 wt % |  | Dtd. (“Dtd.” in the table stands for “detected”, meaning that the impurity is detected but is under the limit of detection (0.05 wt %)) | Dtd. (“Dtd.” in the table stands for “detected”, meaning that the impurity is detected but is under the limit of detection (0.05 wt %)) | Dtd. (“Dtd.” in the table stands for “detected”, meaning that the impurity is detected but is under the limit of detection (0.05 wt %))
